The results in this text go back to US10441681B2, “Materials and methods for nerve grafting” (University of Florida Research Foundation, Inc., priority 2001, dated 2019).

Entries after “also recorded” stand apart in the source; their conditions may differ.

In series [1] the test system is embryonic chick DRG neurons. Briefly: Cryoculture assay of nerve explant cultures (predegeneration). Format: cell-based. Conditions: nerves cultured 2 days, 2% serum, in the presence of GM6001 (50 μM).
Another series relates to MMP. The experiment in a line: In situ zymography of nerve explants (net gelatinolytic activity). It counts as biochemical, rat. Conditions: nerves cultured 2-day, 2% serum in the presence of GM6001. The method, then:
In the control condition, the MMP inhibitor EDTA (30 mM) was included in the reaction buffer. After incubation for 24 h at 37° C., the sections were rinsed with PBS and fixed with 4% paraformaldehyde in phosphate buffer. The sections were rinsed with water and mounted using Citifluor.

A further series has as its system Schwann cell cultures. Briefly: Treatment of isolated Schwann cell cultures (toxicity). It counts as cell-based.

As to `CNC(=O)[C@H](Cc1c[nH]c2ccccc12)NC(=O)[C@@H](CC(=O)NO)CC(C)C` [GM6001], the “increase in mean neurite length over uncultured control nerves” value in series [1] is reported as 14%. The “gelatinolytic activity in nerve explants” value with MMP was “nearly undetectable; also recorded: markedly decreased”. Moreover, the toxicity result with Schwann cell cultures is “very low toxicity”.
